Assay [1] addresses Kappa-type opioid receptor (Homo sapiens, UniProt P41145). The assay is described as follows: DRUGMATRIX: Opiate kappa (OP2, KOP) radioligand binding (ligand: [3H] Diprenorphine). Particulars: Not Active = under 50% inhibition at 10 µM. It counts as cell membranes, HEK293, Membrane.
The nature of assay [2]: DRUGMATRIX: Purinergic P2X radioligand binding (ligand: [3H] alpha, beta-Methylene-ATP). In kind it is cell membranes, Oryctolagus cuniculus, New Zealand albino, Urinary bladder, Membrane. Particulars: Not Active = under 50% inhibition at 10 µM.
The nature of assay [3]: DRUGMATRIX: Glutamate, AMPA radioligand binding (ligand: [3H] AMPA). In kind it is cell membranes, Rattus norvegicus, Wistar, Cerebral cortex, Membrane. Particulars: Not Active = under 50% inhibition at 10 µM.
Assay [4] has as its target D(1A) dopamine receptor (Homo sapiens, UniProt P21728). Description: DRUGMATRIX: Dopamine D1 radioligand binding (ligand: [3H] SCH-23390). In kind it is cell membranes, CHO, Membrane. Particulars: cho; Not Active = under 50% inhibition at 10 µM.
A short description of assay [5]: DRUGMATRIX: ATPase, Na+/K+ enzyme inhibition (substrate: ATP). In kind it is tissue-based, Sus scrofa, Heart. Particulars: Not Active = under 50% inhibition at 10 µM.
Assay [6] in a line: DRUGMATRIX: Glutamate, NMDA, Agonism radioligand binding (ligand: [3H] CGP-39653). Particulars: Not Active = under 50% inhibition at 10 µM. In kind it is cell membranes, Rattus norvegicus, Wistar, Cerebral cortex, Membrane.
Assay [7] is described as follows: DRUGMATRIX: Calcium Channel Type L, Benzothiazepine radioligand binding (ligand: [3H] Diltiazem). In kind it is cell membranes, Rattus norvegicus, Wistar, Brain, Membrane. Particulars: Not Active = under 50% inhibition at 10 µM.
Assay [8] has as its target Mu-type opioid receptor (Homo sapiens, UniProt P35372). Description: DRUGMATRIX: Opiate mu (OP3, MOP) radioligand binding (ligand: [3H] Diprenorphine). In kind it is cell membranes, CHO-K1, Membrane. Particulars: Not Active = under 50% inhibition at 10 µM.

Chain of Kappa-type opioid receptor (P41145 whole entry): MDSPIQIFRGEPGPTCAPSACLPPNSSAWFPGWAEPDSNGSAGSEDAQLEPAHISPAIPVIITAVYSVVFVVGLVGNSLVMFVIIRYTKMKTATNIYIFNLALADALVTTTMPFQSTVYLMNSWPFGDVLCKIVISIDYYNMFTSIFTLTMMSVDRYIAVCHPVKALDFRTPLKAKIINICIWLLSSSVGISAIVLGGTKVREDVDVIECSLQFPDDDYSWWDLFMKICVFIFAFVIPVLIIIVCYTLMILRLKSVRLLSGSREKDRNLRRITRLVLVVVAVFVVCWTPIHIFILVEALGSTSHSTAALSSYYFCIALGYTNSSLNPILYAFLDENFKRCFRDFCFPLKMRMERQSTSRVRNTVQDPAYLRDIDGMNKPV
Chain of D(1A) dopamine receptor (P21728 whole entry): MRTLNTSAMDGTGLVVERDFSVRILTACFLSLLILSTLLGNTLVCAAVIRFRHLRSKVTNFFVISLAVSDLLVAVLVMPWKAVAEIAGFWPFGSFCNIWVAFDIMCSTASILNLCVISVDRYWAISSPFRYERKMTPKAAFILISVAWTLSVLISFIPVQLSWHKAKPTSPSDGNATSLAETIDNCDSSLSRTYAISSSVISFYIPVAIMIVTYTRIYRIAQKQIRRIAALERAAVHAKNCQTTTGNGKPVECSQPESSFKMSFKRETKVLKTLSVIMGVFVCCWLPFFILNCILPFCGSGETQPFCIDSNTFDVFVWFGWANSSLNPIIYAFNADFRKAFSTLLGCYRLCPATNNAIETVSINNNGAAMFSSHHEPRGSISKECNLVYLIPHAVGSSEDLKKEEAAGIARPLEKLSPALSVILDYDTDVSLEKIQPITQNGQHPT
Chain of Mu-type opioid receptor (P35372 whole entry): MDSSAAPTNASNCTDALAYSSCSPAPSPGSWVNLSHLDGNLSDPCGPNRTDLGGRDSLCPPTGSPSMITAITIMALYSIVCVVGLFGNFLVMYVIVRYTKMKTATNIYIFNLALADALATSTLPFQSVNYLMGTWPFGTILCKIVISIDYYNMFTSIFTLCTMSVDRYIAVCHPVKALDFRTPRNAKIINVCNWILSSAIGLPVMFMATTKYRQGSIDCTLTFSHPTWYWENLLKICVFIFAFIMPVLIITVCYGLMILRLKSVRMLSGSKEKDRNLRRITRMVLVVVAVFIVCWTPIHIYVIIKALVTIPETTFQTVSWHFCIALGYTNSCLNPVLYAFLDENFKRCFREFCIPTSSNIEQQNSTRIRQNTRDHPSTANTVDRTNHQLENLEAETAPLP

Consider `CCCCC(=O)N(Cc1ccc(-c2ccccc2-c2nnn[nH]2)cc1)[C@H](C(=O)O)C(C)C`, for which the 50% inhibitory concentration (IC50) result in assay [1] (hek293), in assay [2], in assay [3], in assay [4], in assay [5] and in assay [6] was “Not Active” each time. The concentration for half-maximal inhibition (IC50) result in assay [7] and in assay [8] (cho-k1) was “Not Active” throughout. Also, the Ki entry in assay [2], in assay [3], in assay [5], in assay [6] and in assay [7] was “Not Active” each time.
On to `O=C(O)COc1ccc(C(=O)c2cccs2)c(Cl)c1Cl`, for which the 50% inhibitory concentration (IC50) result in assay [1] (hek293), in assay [2], in assay [3], in assay [4], in assay [5] and in assay [6] was “Not Active” throughout. The IC50 result in assay [7] and in assay [8] (cho-k1) was “Not Active” in each case. The inhibitory constant (Ki) result in assay [2], in assay [3], in assay [5], in assay [6] and in assay [7] was “Not Active” throughout.
Consider `CN1[C@@H]2CC[C@H]1C[C@@H](OC(c1ccccc1)c1ccccc1)C2` [BENZTROPINE], for which the IC50 result in assay [1] (hek293) and in assay [8] (cho-k1) was “Not Active” each time.
Consider `C[C@@](Cc1ccc(O)c(O)c1)(NN)C(=O)O.O` [CARBIDOPA], for which the IC50 result in assay [1] (hek293), in assay [2], in assay [3], in assay [4], in assay [5] and in assay [6] was “Not Active” each time. Besides, the IC50 result in assay [7] and in assay [8] (cho-k1) was “Not Active” throughout. For the same compound, the inhibition constant (Ki) result in assay [2], in assay [3], in assay [5], in assay [6] and in assay [7] was “Not Active” throughout.
With `CN1CCN(C2=Nc3cc(Cl)ccc3Nc3ccccc32)CC1` [CLOZAPINE], the half-inhibitory concentration (IC50) entry in assay [1] (hek293) and in assay [8] (cho-k1) was “Not Active” in each case.
On to `CC(C)NC[C@@H](O)COc1cccc2ccccc12` [DEXPROPRANOLOL], for which the IC50 entry in assay [1] (hek293) and in assay [8] (cho-k1) was “Not Active” in each case.
On to `CC(C)NC[C@H](O)COc1cccc2ccccc12` [LEVOPROPRANOLOL], for which the concentration for half-maximal inhibition (IC50) entry in assay [1] (hek293) and in assay [8] (cho-k1) was “Not Active” in each case.
In the case of `O=C(O)CCCCC1CCSS1` (stereo not drawn) [LIPOIC ACID, ALPHA], the IC50 result in assay [1] (hek293), in assay [2], in assay [3], in assay [4], in assay [5] and in assay [6] was “Not Active” each time. For the same compound, the IC50 result in assay [7] and in assay [8] (cho-k1) was “Not Active” throughout. Besides, the Ki entry in assay [2], in assay [3], in assay [5], in assay [6] and in assay [7] was “Not Active” in each case.
`Clc1ccc(COC(Cn2ccnc2)c2ccc(Cl)cc2Cl)c(Cl)c1` (stereo not given) [MICONAZOLE]: the figures for the inhibitory constant (Ki) in assay [1] and in assay [8] were 2640 nM and 2460 nM, respectively. Moreover, the half-inhibitory concentration (IC50) in assay [1] (read-out: IC50) amounted to 6590 nM; in assay [8] (read-out: IC50) it was 6060 nM.
Turning to `C[C@]12C=CC(=O)C=C1CC[C@@H]1[C@@H]2C(=O)C[C@@]2(C)[C@H]1CC[C@]2(O)C(=O)CO` [PREDNISONE], the IC50 entry in assay [1] (hek293), in assay [2], in assay [3], in assay [4], in assay [5] and in assay [6] was “Not Active” each time. Besides, the 50% inhibitory concentration (IC50) entry in assay [7] and in assay [8] (cho-k1) was “Not Active” in each case. Moreover, the Ki entry in assay [2], in assay [3], in assay [5], in assay [6] and in assay [7] was “Not Active” throughout.
As for `OCCOCCN1CCN(C2=Nc3ccccc3Sc3ccccc32)CC1` [QUETIAPINE], the IC50 entry in assay [1] (hek293) and in assay [8] (cho-k1) was “Not Active” in each case.
Turning to `COC(=O)[C@H]1[C@H]2C[C@@H]3c4[nH]c5cc(OC)ccc5c4CCN3C[C@H]2C[C@@H](OC(=O)c2cc(OC)c(OC)c(OC)c2)[C@@H]1OC` [RESERPINE], the IC50 result in assay [1] (hek293), in assay [2], in assay [3], in assay [4], in assay [5] and in assay [6] was “Not Active” throughout. Moreover, the half-inhibitory concentration (IC50) in assay [7] (read-out: IC50) came out at 3710 nM; in assay [8] (read-out: IC50), 4150 nM. Besides, the inhibition constant (Ki) result was “Not Active” in assay [2]; “Not Active” in assay [3]; “Not Active” in assay [5]; “Not Active” in assay [6]; 3300 nM in assay [7] (read-out: Ki); 1690 nM in assay [8].
In the case of `O=C(O)c1ccccc1O` [SALICYLIC ACID], the concentration for half-maximal inhibition (IC50) result in assay [2], in assay [3], in assay [4], in assay [5], in assay [6] and in assay [7] was “Not Active” throughout. Also, the inhibition constant (Ki) entry in assay [2], in assay [3], in assay [5], in assay [6] and in assay [7] was “Not Active” throughout.
`C[S+]([O-])c1ccc(-c2nc(-c3ccncc3)c(-c3ccc(F)cc3)[nH]2)cc1` (stereo not given) [SB-203580]: the IC50 result in assay [1] (hek293) and in assay [8] (cho-k1) was “Not Active” throughout.
With `CC1CCC(NC(=O)N(CCCl)N=O)CC1` (stereo not given) [SEMUSTINE], the IC50 result in assay [1] (hek293), in assay [2], in assay [3], in assay [4], in assay [5] and in assay [6] was “Not Active” throughout. Moreover, the IC50 entry in assay [7] and in assay [8] (cho-k1) was “Not Active” in each case. For the same compound, the inhibition constant (Ki) result in assay [2], in assay [3], in assay [5], in assay [6] and in assay [7] was “Not Active” in each case.
Consider `O=C1C[C@@H]2OCC=C3CN4CC[C@]56c7ccccc7N1[C@H]5[C@H]2[C@H]3C[C@H]46` [STRYCHNINE], for which the half-maximal inhibitory concentration (IC50) result in assay [2], in assay [3], in assay [4], in assay [5], in assay [6] and in assay [7] was “Not Active” throughout. For the same compound, the Ki result in assay [2], in assay [3], in assay [5], in assay [6] and in assay [7] was “Not Active” throughout.
On to `C[N+](C)(C)CCOC(=O)CCC(=O)OCC[N+](C)(C)C.[Cl-].[Cl-]` [SUCCINYLCHOLINE CHLORIDE], for which the IC50 result in assay [2], in assay [3], in assay [4], in assay [5], in assay [6] and in assay [7] was “Not Active” throughout. Moreover, the IC50 result in assay [8] (cho-k1) is given as “Not Active”. The inhibition constant (Ki) result in assay [2], in assay [3], in assay [5], in assay [6] and in assay [7] was “Not Active” in each case.
Regarding `Nc1ccc(S(=O)(=O)NC(=O)c2ccccc2)cc1` [SULFABENZAMIDE], the IC50 result in assay [1] (hek293), in assay [2], in assay [3], in assay [4], in assay [5] and in assay [6] was “Not Active” throughout. In addition, the half-inhibitory concentration (IC50) entry in assay [7] and in assay [8] (cho-k1) was “Not Active” throughout. Also, the Ki entry in assay [2], in assay [3], in assay [5], in assay [6] and in assay [7] was “Not Active” in each case.
As for `CCCCCCCCNC(C)C(O)c1ccc(SC(C)C)cc1` (stereo not given) [SULOCTIDIL], the 50% inhibitory concentration (IC50) entry in assay [1] (hek293), in assay [2], in assay [3], in assay [4], in assay [5] and in assay [6] was “Not Active” in each case. For the same compound, the concentration for half-maximal inhibition (IC50) in assay [7] (read-out: IC50) is 171 nM; in assay [8] (cho-k1) it was “Not Active”. Moreover, the inhibition constant Ki entry in assay [2] is “Not Active”; in assay [3] it was “Not Active”; in assay [5], “Not Active”; in assay [6], “Not Active”; in assay [7] (read-out: Ki), 152 nM.
As to `O=c1[nH]c(=O)n(C2CCCO2)cc1F` (stereo not given) [TEGAFUR], the half-maximal inhibitory concentration (IC50) result in assay [1] (hek293), in assay [2], in assay [3], in assay [4], in assay [5] and in assay [6] was “Not Active” throughout. The half-maximal inhibitory concentration (IC50) entry in assay [7] and in assay [8] (cho-k1) was “Not Active” throughout. Besides, the Ki entry in assay [2], in assay [3], in assay [5], in assay [6] and in assay [7] was “Not Active” throughout.
Consider TRANSPLATIN, for which the IC50 result in assay [2], in assay [3], in assay [4], in assay [5], in assay [6] and in assay [7] was “Not Active” in each case. For the same compound, the inhibitory constant (Ki) entry in assay [2], in assay [3], in assay [4], in assay [5], in assay [6] and in assay [7] was “Not Active” each time.
Take ZIRCONIUM(IV) CHLORIDE: the IC50 result in assay [2], in assay [3], in assay [4], in assay [5], in assay [6] and in assay [7] was “Not Active” each time. In addition, the inhibitory constant (Ki) entry in assay [2], in assay [3], in assay [4], in assay [5], in assay [6] and in assay [7] was “Not Active” throughout.

What is called IC50 is the concentration at which inhibition is half-maximal. As usually defined, the Ki is a dissociation constant, usually derived from enzyme kinetics or from competition with a known ligand.
